Biological target: IgE-Tb / sFcεRIα-Y131A-AF488 (Homo sapiens, UniProt P01854, N146Q/N252Q)
Assay: IgE-Tb / sFcεRIα-Y131A-AF488 FRET assay (protocol for examples 234 to 501)
Assay type: binding
Settings: examples 234 to 501: compound with IgE-Tb 30 minutes before sFcεRIα-Y131A-AF488, incubated 18 hours at room temperature; read-out: Y131A FRET IC50 range
In short: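 Compounds (10-point 3-fold series, top usually 10 μM, 2% DMSO) preincubated 30 min with 5 nM IgE-Tb, then 25 nM sFcεRIα-Y131A-AF488 added; 18 h at room temperature in the dark. TR-FRET ratio 520/490 nm after 337 nm excitation, background-subtracted; IC50 by four-parameter logistic fit.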

Chain of IgE-Tb / sFcεRIα-Y131A-AF488 (P01854 whole entry N146Q/N252Q): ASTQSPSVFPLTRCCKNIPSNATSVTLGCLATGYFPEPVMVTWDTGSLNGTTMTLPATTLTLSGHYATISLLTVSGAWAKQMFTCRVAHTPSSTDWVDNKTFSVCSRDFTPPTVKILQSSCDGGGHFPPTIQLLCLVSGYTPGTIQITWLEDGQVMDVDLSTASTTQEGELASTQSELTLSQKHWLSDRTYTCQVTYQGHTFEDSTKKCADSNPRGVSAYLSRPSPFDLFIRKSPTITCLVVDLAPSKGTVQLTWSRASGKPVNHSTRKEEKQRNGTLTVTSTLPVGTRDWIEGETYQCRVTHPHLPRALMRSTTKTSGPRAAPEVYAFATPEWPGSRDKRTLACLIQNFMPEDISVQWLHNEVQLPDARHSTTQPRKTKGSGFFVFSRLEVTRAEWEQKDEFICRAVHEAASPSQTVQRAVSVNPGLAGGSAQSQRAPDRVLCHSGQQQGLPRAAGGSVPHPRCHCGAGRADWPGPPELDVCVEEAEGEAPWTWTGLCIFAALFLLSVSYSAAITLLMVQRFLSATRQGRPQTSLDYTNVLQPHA

## CSc1cccc(Nc2nncn2[C@H]2CCc3sc(NC(=O)C4CC4)c(C(=O)NCC4CC4)c3C2)c1 [Example 249, (5S)-2-(cyclopropanecarbonylamino)-N-(cyclopropylmethyl)-5-[3-(3-methylsulfanylanilino)-1,2,4-triazol-4-yl]-4,5,6,7-tetrahydrobenzothiophene-3-carboxamide]
  IC50: < 1000 nM

## CS(=O)(=O)c1cccc(Nc2nncn2[C@H]2CCc3sc(NC(=O)C4CC4)c(C(=O)NCC4CC4)c3C2)c1 [Example 250, (5S)-2-(cyclopropanecarbonylamino)-N-(cyclopropylmethyl)-5-[3-(3-methylsulfonylanilino)-1,2,4-triazol-4-yl]-4,5,6,7-tetrahydrobenzothiophene-3-carboxamide]
  IC50: < 1000 nM

## C[S+]([O-])c1cccc(Nc2nncn2[C@H]2CCc3sc(NC(=O)C4CC4)c(C(=O)NCC4CC4)c3C2)c1 (stereo partly drawn) [Example 251, (5S)-2-(cyclopropanecarbonylamino)-N-(cyclopropylmethyl)-5-[3-(3-methylsulfinylanilino)-1,2,4-triazol-4-yl]-4,5,6,7-tetrahydrobenzothiophene-3-carboxamide]
  IC50: < 1000 nM

## C[S+]([O-])c1cccc(Nc2nncn2[C@H]2CCc3sc(NC(=O)C4CC45CC5)c(C(=O)NCC4CC4)c3C2)n1 (stereo partly drawn) [Example 255, (5S)—N-(cyclopropylmethyl)-5-[3-[(6-methylsulfinyl-2-pyridyl)amino]-1,2,4-triazo-4-yl]-2-(spiro[2.2]pentane-2-carbonylamino)-4,5,6,7-tetrahydrobenzothiophene-3-carboxamide]
  IC50: < 1000 nM

## COc1ccc2c(c1)Nc1c(ncn1[C@H]1CCc3sc(NC(=O)C4CC4)c(C(=O)NCC4CC4)c3C1)C(=O)N2 [Example 257, (5S)-2-(cyclopropanecarbonylamino)-N-(cyclopropylmethyl)-5-(8-methoxy-4-oxo-5,10-dihydroimidazo[4,5-c][1,5]benzodiazepin-1-yl)-4,5,6,7-tetrahydrobenzothiophene-3-carboxamide]
  IC50: < 1000 nM

## COc1ccc2c(c1)Nc1c(ncn1[C@H]1CCc3sc(NC(=O)C4CC4)c(C(=O)NCC4CC4)c3C1)C(=O)N2C [Example 258, (5S)-2-(cyclopropanecarbonylamino)-N-(cyclopropylmethyl)-5-(8-methoxy-5-methyl-4-oxo-10H-imidazo[4,5-c][1,5]benzodiazepin-1-yl)-4,5,6,7-tetrahydrobenzothiophene-3-carboxamide]
  IC50: < 1000 nM

## Nc1c(C(=O)N2CC[C@@H](O)C2)ncn1[C@H]1CCc2sc(NC(=O)C3CC3)c(C(=O)NCC3CC3)c2C1 [Example 260, (5S)-5-[5-amino-4-[(3R)-3-hydroxypyrrolidine-1-carbonyl]imidazol-1-yl]-2-(cyclopropanecarbonylamino)-N-(cyclopropylmethyl)-4,5,6,7-tetrahydrobenzothiophene-3-carboxamide]
  IC50: < 1000 nM

## C[C@H]1CCCN1C(=O)c1ncn([C@H]2CCc3sc(NC(=O)C4CC4)c(C(=O)NCC4CC4)c3C2)c1N [Example 261, (5S)-5-[5-amino-4-[(2S)-2-methylpyrrolidine-1-carbonyl]imidazol-1-yl]-2-(cyclopropanecarbonylamino)-N-(cyclopropylmethyl)-4,5,6,7-tetrahydrobenzothiophene-3-carboxamide]
  IC50: < 1000 nM

## CCOC(=O)c1ncn([C@H]2CCc3sc(NC(=O)C4CC4)c(C(=O)NCC4CC4)c3C2)c1Nc1c([N+](=O)[O-])c(C)nn1C [Example 262, Ethyl 1-[(5S)-2-(cyclopropanecarbonylamino)-3-(cyclopropylmethylcarbamoyl)-4,5,6,7-tetrahydrobenzothiophen-5-yl]-5-[(2,5-dimethyl-4-nitro-pyrazol-3-yl)amino]imidazole-4-carboxylate]
  IC50: < 1000 nM

## Cc1c(Nc2nncn2[C@H]2CCc3sc(NC(=O)C4CC4)c(C(=O)NCC4CC4)c3C2)cccc1[S+](C)[O-] (stereo partly drawn) [Example 263, (5S)-2-(cyclopropanecarbonylamino)-N-(cyclopropylmethyl)-5-[3-(2-methyl-3-methylsulfinyl-anilino)-1,2,4-triazol-4-yl]-4,5,6,7-tetrahydrobenzothiophene-3-carboxamide]
  IC50: < 1000 nM

## Cc1c(Nc2nncn2[C@H]2CCc3sc(NC(=O)C4CC4)c(C(=O)NCC4CC4)c3C2)cccc1S(C)(=O)=O [Example 264, (5S)-2-(cyclopropanecarbonylamino)-N-(cyclopropylmethyl)-5-[3-(2-methyl-3-methylsulfonyl-anilino)-1,2,4-triazol-4-yl]-4,5,6,7-tetrahydrobenzothiophene-3-carboxamide]
  IC50: < 1000 nM

## Cn1nc(-c2ncco2)cc1Nc1nncn1[C@H]1CCc2sc(NC(=O)C3CC3)c(C(=O)NCC3CC3)c2C1 [Example 265, (5S)-2-(cyclopropanecarbonylamino)-N-(cyclopropylmethyl)-5-[3-[(2-methyl-5-oxazol-2-yl-pyrazol-3-yl)amino]-1,2,4-triazol-4-yl]-4,5,6,7-tetrahydrobenzothiophene-3-carboxamide]
  IC50: < 1000 nM

## CC(=O)N1CC[C@H](Nc2nncn2[C@H]2CCc3sc(NC(=O)C4CC4)c(C(=O)NCC4CC4)c3C2)C1 [Example 266, (5S)-5-[3-[[(3S)-1-acetylpyrrolidin-3-yl]amino]-1,2,4-triazol-4-yl]-2-(cyclopropanecarbonylamino)-N-(cyclopropylmethyl)-4,5,6,7-tetrahydrobenzothiophene-3-carboxamide]
  IC50: < 1000 nM

## CS(=O)(=O)N1CC[C@H](Nc2nncn2[C@H]2CCc3sc(NC(=O)C4CC4)c(C(=O)NCC4CC4)c3C2)C1 [Example 267, (5S)-2-(cyclopropanecarbonylamino)-N-(cyclopropylmethyl)-5-[3-[[(3S)-1-methylsulfonylpyrrolidin-3-yl]amino]-1,2,4-triazol-4-yl]-4,5,6,7-tetrahydrobenzothiophene-3-carboxamide]
  IC50: < 1000 nM

## CS(=O)(=O)N1CC[C@@H](Nc2nncn2[C@H]2CCc3sc(NC(=O)C4CC4)c(C(=O)NCC4CC4)c3C2)C1 [Example 268, (5S)-2-(cyclopropanecarbonylamino)-N-(cyclopropylmethyl)-5-[3-[[(3R)-1-methylsulfonylpyrrolidin-3-yl]amino]-1,2,4-triazol-4-yl]-4,5,6,7-tetrahydrobenzothiophene-3-carboxamide]
  IC50: < 1000 nM

## O=C1CC(Nc2nncn2[C@H]2CCc3sc(NC(=O)C4CC4)c(C(=O)NCC4CC4)c3C2)CN1 (stereo partly drawn) [Example 270, (5S)-2-(cyclopropanecarbonylamino)-N-(cyclopropylmethyl)-5-[3-[(5-oxopyrrolidin-3-yl)amino]-1,2,4-triazol-4-yl]-4,5,6,7-tetrahydrobenzothiophene-3-carboxamide]
  IC50: < 1000 nM

## O=C1CC(Nc2nncn2[C@H]2CCc3sc(NC(=O)C4CC4)c(C(=O)NCC4CC4)c3C2)CCN1 (stereo partly drawn) [Example 272, (5S)-2-(cyclopropanecarbonylamino)-N-(cyclopropylmethyl)-5-[3-[(2-oxo-4-piperidyl)amino]-1,2,4-triazol-4-yl]-4,5,6,7-tetrahydrobenzothiophene-3-carboxamide]
  IC50: < 1000 nM

## CC(=O)N1CCC(Nc2nncn2[C@H]2CCc3sc(NC(=O)C4CC4)c(C(=O)NCC4CC4)c3C2)C1C (stereo partly drawn) [Example 273, (5S)-5-[3-[(1-acetyl-2-methyl-pyrrolidin-3-yl)amino]-1,2,4-triazol-4-yl]-2-(cyclopropanecarbonylamino)-N-(cyclopropylmethyl)-4,5,6,7-tetrahydrobenzothiophene-3-carboxamide]
  IC50: < 1000 nM
